# Reference: patent US20110021575A1, “PENETRATION ENHANCERS FOR INSECTICIDAL AGENTS” (priority 2006, published 2011)
# Experiment: Penetration test: penetration of active substance through enzymatically isolated apple leaf cuticles in diffusion cells
# Assay type: in vitro ADME, apple trees of the Golden Delicious variety
# Details: cuticular penetration of imidacloprid, at 20° C., 60%, imidacloprid 0.3 g/l (ai alone) or 0.2 g/l (with surfactant), mean values of 5-8 repetitions
# Protocol: In this test, the penetration of active substances through enzymatically isolated cuticles of apple tree leaves was measured.
# Leaves which were cut off in the stage of full development of apple trees of the Golden Delicious variety were used. The isolation of the cuticles was effected in a manner such that • first leaf discs marked on the underside with dye and punched out were filled by means of vacuum infiltration with a pectinase solution (0.2 to 2% strength) buffered to a pH between 3 and 4, • sodium azide was then added and • the leaf discs thus treated were allowed to stand until disintegration of the original leaf structure and detachment of the noncellular cuticle.
# Thereafter, only those cuticles of the upper sides of the leaves which were free of staltoa and hairs were further used. They were washed several times alternately with water and a buffer solution at pH 7. The clean cuticles obtained were finally drawn onto small Teflon plates and smoothed and dried with a gentle air jet.
# In the next step, the cuticle membranes thus obtained were placed in stainless steel diffusion cells (=transport chambers) for membrane transport investigations. For this purpose, the cuticles were placed by means of forceps centrally on the silicone grease-coated edges of the diffusion cells and closed with a likewise greased ring. The arrangement was chosen so that the morphological outside of the cuticles faced outwards, i.e. towards the air, while the original inside faced the interior of the diffusion cell. The diffusion cells were filled with water or with a mixture of water and solvent. […]
# After the application of the spray liquors, in each case the water was allowed to evaporate, and in each case the chambers were then turned around and were placed in thermostated trays, air having a defined temperature and atmospheric humidity being blown onto the outside of the cuticle. […] The active substance penetration was measured with radioactively marked active substance.
smiles,measurement,setting,value
"O=[N+]([O-])NC1=NCCN1Cc1ccc(Cl)nc1 [Imidacloprid (ai), imidacloprid]",Penetration after 5 hours,after 5 hours,0.1%
same,Penetration after 1 day,after 1 day,0.3%
same,Penetration after 2 days,after 2 days,0.5%
